Assay results reported in PubChem BioAssay (NCI).
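Cultured in 96-well plates, cells were exposed to test compound for 48 hours across five concentrations. TGI is the concentration that stops growth completely.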

Assays:
Experiment in all cases: NCI anticancer screen, dose series, 48 h
[1] = tested on: HCT-116 colon
[2] = tested on: M14 melanoma
[3] = tested on: MCF7 breast
[4] = tested on: NCI-H23 lung
[5] = tested on: NCI-H522 lung
[6] = tested on: OVCAR-3 ovarian
[7] = tested on: PC-3 prostate
[8] = tested on: SF-539 CNS
[9] = tested on: TK-10 renal
[10] = tested on: CCRF-CEM leukemia
[11] = tested on: OVCAR-8 ovarian

Structure (SMILES) | TGI [1] | TGI [2] | TGI [3] | TGI [4] | TGI [5] | TGI [6] | TGI [7] | TGI [8] | TGI [9] | TGI [10] | TGI [11]
COc1ccc(/C(Cl)=C(\C#N)c2ccc(OC)c(OC)c2)cc1OC | > 100 µM | > 100 µM | > 100 µM | > 100 µM | > 100 µM | > 100 µM | > 100 µM | > 100 µM | > 100 µM | – | –
CN1CC=C(c2c(N)nc(N)[nH]c2=O)CC1 | > 100 µM | > 100 µM | > 100 µM | > 100 µM | > 100 µM | > 100 µM | > 100 µM | > 100 µM | – | > 100 µM | > 100 µM
N[C@H](Cc1ccc2oc3cc(=O)c4ccccc4c-3nc2c1)C(=O)O | > 100 µM | 39.9 µM | 65 µM | > 100 µM | > 100 µM | > 100 µM | – | > 100 µM | > 100 µM | 56.2 µM | > 100 µM
COc1cccc(-c2nc(-c3cnccn3)n(C/C=C/c3ccccc3)n2)c1 | – | > 10 µM | > 10 µM | > 10 µM | > 10 µM | > 10 µM | > 10 µM | > 10 µM | > 10 µM | > 10 µM | > 10 µM
CC(NC(=O)Cc1ccccc1)NC(=O)C(C)C(=O)NCc1ccccc1 (centres undefined) | > 100 µM | > 100 µM | > 100 µM | > 100 µM | > 100 µM | – | > 100 µM | > 100 µM | > 100 µM | > 100 µM | > 100 µM
CN1CCN(/C(N)=C(\C#N)C(=O)Nc2ccc(Cl)cc2)CC1 | > 100 µM | > 100 µM | > 100 µM | > 100 µM | – | > 100 µM | > 100 µM | > 100 µM | – | > 100 µM | > 100 µM
COCn1cnc2c(=O)nc(SC)n(-c3ccccc3)c21 | > 100 µM | > 100 µM | > 100 µM | > 100 µM | > 100 µM | > 100 µM | – | > 100 µM | > 100 µM | > 100 µM | > 100 µM
COc1ccc(/C=N/N=C(\N)NO)c(OC)c1C | > 100 µM | – | – | 60.6 µM | 26.4 µM | > 100 µM | – | 54.1 µM | – | > 100 µM | > 100 µM
O=c1cc(NNc2cccc(Cl)c2)[nH]c(=O)[nH]1 | 31.9 µM | 37.7 µM | 17.3 µM | > 100 µM | 34.4 µM | 31.2 µM | > 100 µM | > 100 µM | 36.2 µM | 68.8 µM | –
CC1(C)OP(=O)(O)C=C1Sc1ccc([N+](=O)[O-])cc1[N+](=O)[O-] | > 100 µM | > 100 µM | > 100 µM | > 100 µM | > 100 µM | > 100 µM | > 100 µM | > 100 µM | > 100 µM | – | > 100 µM
O=C(Cn1c2ccc(Br)cc2c2nc3ccccc3nc21)NNC(=S)NC1CCCCC1 | 26.9 µM | 24.2 µM | – | 30.5 µM | 27.6 µM | 22.8 µM | 24 µM | – | 28.7 µM | 18.8 µM | 27.8 µM
